{"source": "paper PMC12144419", "about": "“Early preclinical development of Mycobacteriumtuberculosis amino acid biosynthesis pathway inhibitor DRILS-1398 as a potential anti-TB drug” (iScience, 2025)", "key": {"M.tb H37Rv cells": {"system": "M.tb H37Rv cells", "assay": "In vitro amino acid supplementation (rescue) growth experiment", "assay_type": "cell-based, Mycobacterium tuberculosis", "details": "amino acid 100 μg/mL"}, "CYP 1A2": {"molecular_target": "CYP 1A2 (Homo sapiens, UniProt P05177)", "sequence (P05177 whole entry)": "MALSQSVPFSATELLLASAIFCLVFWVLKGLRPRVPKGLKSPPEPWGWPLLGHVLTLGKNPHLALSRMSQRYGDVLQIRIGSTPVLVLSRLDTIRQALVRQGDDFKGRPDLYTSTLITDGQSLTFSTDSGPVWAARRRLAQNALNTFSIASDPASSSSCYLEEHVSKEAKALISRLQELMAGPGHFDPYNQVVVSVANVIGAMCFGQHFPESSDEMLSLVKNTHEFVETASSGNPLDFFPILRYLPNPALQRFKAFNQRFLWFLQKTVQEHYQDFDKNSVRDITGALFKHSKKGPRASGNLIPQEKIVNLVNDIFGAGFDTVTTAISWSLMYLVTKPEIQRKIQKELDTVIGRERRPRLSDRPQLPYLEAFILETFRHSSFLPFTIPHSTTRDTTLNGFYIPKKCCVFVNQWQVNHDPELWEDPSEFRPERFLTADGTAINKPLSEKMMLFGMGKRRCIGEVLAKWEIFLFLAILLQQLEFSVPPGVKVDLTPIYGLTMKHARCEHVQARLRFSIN", "assay": "Vivid CYP inhibition, fluorescent substrate method", "quoted_text": "(§1) This study performed CYP inhibition assay using Vivid CYP P450 (1A2, 2C9, 2C19, 2D6, and 3A4) blue screening kits.[56] […] The fluorescent reading was taken using a microplate reader at excitation/emission wavelengths of 415/460 nm, respectively. The % of CYP inhibition of test/positive control at each tested concentration was calculated, and the IC50 value against each CYP isoform was plotted using Graph pad prism software."}, "[1]": {"assay": "Repeated dose 7-day toxicity study", "assay_type": "in vivo, BALB/c mice", "description": "As per the guideline,[58]^,[59] 40 males and 40 females were assigned into four groups of ten animals/sex per group viz., Vehicle control (G1), Low dose (G2), Mid Dose (G3) and High dose (G4). The test item formulations were prepared freshly in Ultra-pure water type 1 as a vehicle. The vehicle alone was administered to the vehicle control (G1) animals. Test item formulations were administered daily once at dose levels of 125 (G2), 250 (G3) and 500 (G4) mg/kg b.w./day. All the animals were administered a dose volume of 10 mL/kg b.w. once daily for 7 consecutive days. All the animals were observed once daily for clinical signs, twice daily for mortality/morbidity, and on day 7 for detailed clinical examination. Body weights and feed consumption were recorded at weekly intervals. At the end of the experimental period (day 8), blood and harvested plasma specimens were analyzed for haematology and clinical chemistry parameters, respectively. Subsequently, the animals were euthanized and subjected to gross pathological examination. The specified organs were collected and preserved in 10% NBF for histopathological evaluation. The protocol was approved by the Institutional Animal Ethics Committee of the Preclinical Research Department, Anthem Biosciences Pvt. Ltd., Bangalore 560099, India. Study no: N23041 (ABD/IAEC/PR/296-23-24)."}, "[2]": {"system": "Salmonella typhimurium TA98, TA100 and TA1537", "assay": "Bacterial reverse mutation test (Ames)", "details": "3000.0, 949.5, 300.0, 94.9 and 30.0 μg/plate, with and without rat liver S9"}, "MDR-M.tb ATCC 35825": {"system": "MDR-M.tb ATCC 35825", "assay": "Broth dilution MIC by turbidometry", "assay_type": "cell-based", "details": "Mycobacterium tuberculosis, ATCC35825"}, "CYP 2D6": {"molecular_target": "CYP 2D6 (Homo sapiens, UniProt P10635)", "sequence (P10635 whole entry)": "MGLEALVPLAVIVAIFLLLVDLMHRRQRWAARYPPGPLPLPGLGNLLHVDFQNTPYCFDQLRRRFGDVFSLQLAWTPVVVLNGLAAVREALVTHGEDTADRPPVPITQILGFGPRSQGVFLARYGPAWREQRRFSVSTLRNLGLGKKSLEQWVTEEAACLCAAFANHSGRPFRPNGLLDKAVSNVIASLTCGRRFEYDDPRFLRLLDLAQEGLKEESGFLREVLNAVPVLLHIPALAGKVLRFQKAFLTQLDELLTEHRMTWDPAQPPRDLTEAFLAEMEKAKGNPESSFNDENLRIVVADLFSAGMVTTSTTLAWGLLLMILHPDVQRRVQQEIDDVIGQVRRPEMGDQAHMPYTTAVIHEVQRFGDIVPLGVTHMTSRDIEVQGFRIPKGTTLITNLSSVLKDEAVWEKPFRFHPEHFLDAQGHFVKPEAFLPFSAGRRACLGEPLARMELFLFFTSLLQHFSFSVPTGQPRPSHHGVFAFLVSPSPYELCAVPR", "assay": "biochemical", "quoted_text": "as §1"}, "[3]": {"system": "intracellular M.tb H37Rv (ATCC 27294) in activated THP-1 macrophages", "assay": "Intracellular efficacy THP-1 macrophage assay, M.tb H37Rv ATCC 27294", "quoted_text": "The THP-1 cells were activated with PMA (phorbol 12-myristate-13-acetate) for differentiation into macrophages. After 72 hr of activation, the THP-1 macrophages were infected with M.tb H37Rv strain (ATCC-27294 and ATCC-35825) at a multiplicity of infection (MOI) of 1:10.[34]^,[35] The macrophage infection was allowed for 2 hrs at 37°C with 5% CO2. The media containing M.tb was discarded, and macrophage monolayers were washed twice with phosphate-buffered saline to remove the extracellular bacteria and replenished with fresh, complete RPMI. The M.tb-infected macrophages were exposed to compounds by transferring 200 μL of fresh media containing the respective concentrations of the compounds. Duplicate wells were lysed (0.05% SDS) at specific time points and enumerated to estimate the numbers of intracellular M.tb 2 hr post-infection. The 0.1 mL of lysate was serially diluted and plated onto Middle brook 7H11 agar plates for enumeration (read after 3 to 4 weeks) of live M.tb after compound treatment. After 3 and 7 day exposure to the compounds, the cells were treated the same way, and the live M.tb was enumerated. The efficacy of the test compound was assessed by comparing the M.tb counts from the respective days to day 0 and day 7."}, "[4]": {"assay": "Single-dose oral pharmacokinetics in male BALB/c mice", "details": "mouse, in vivo", "description": "Male BALB/c mice aged 8-9 weeks were used for experimentation after a minimum of 3 days of acclimatization.[38]^,[39]^,[40] Fasted animals were administered with DRILS-1398 or DRILS-1398 (F) in a recommended vehicle (1%(v/v) Tween 80 + 99% (v/v) of 0.5% (w/v) Carboxymethylcellulose sodium salt in ultrapure water) by oral route with a dose of 50 mg/kg body weight of DRILS-1398 or 10 mg/kg and 30 mg/kg for DRILS-1398(F) at a dose volume of 10 mL/kg b.w. Under mild isoflurane anesthesia, a blood specimen was collected into pre-labeled tubes containing anticoagulant (K2EDTA - 2 mg/mL blood) during the next 24 hours of post-dose (Table-PK study design chart). The collected blood specimens were centrifuged at 6000 rpm, 4°C for 10 min, and plasma was separated and stored at -80°C until analysis. […] Concentrations of analyte DRILS-1398 in mice plasma samples were determined using the Shimadzu LCMS-8045 LC-MS/MS system. The protocols were approved by the Institutional Animal Ethics Committee of the Preclinical Research Department, Anthem Biosciences Pvt. Ltd., Bangalore 560099, India (Study no for 50mg/kg PK study: N20084, (ABD/IASE/PR/185/19-22) and the study no for PK studies for 10mg/kg and 30mg/kg of DRILS-1398(F): ABD-8056 and ABD-7967A (ABD/IAEC/PR/89-17-20) respectively."}, "[5]": {"assay": "Single-dose IV pharmacokinetics in male BALB/c mice", "assay_type": "in vivo", "details": "mouse, 10 mg/kg", "description": "The intravenous (IV) (10 mg/kg of DRILS-1398) dosing study on BALB/c male mice (n=3 per time point, not more than 2 bleeds per animal, total animals dosed n=12) was carried out on the following time points through saphenous veins; IV: 15 mins, 30 mins, 1, 2, 4, 6, 8 and 24 hr. Collected blood specimens were centrifuged at 6000rpm, 4°C for 10 minutes, and plasma was separated and stored at -80°C until analysis. […] Concentrations of analyte DRILS-1398 in mice plasma samples were determined using the Shimadzu LCMS-8045 LC-MS/MS system. The protocol was approved by the Institutional Animal Ethics Committee of the Preclinical Research Department, Anthem Biosciences Pvt. Ltd., Bangalore 560099, India (protocol number for 10 mg/kg IV PK study: ABD-7967B (ABD/IAEC/PR/89-17-20)."}, "[6]": {"details": "microsomes; for Mouse microsomal stability: 3 µM"}, "M.tb H37Rv": {"system": "M.tb H37Rv", "assay": "In vivo efficacy study, M.tb H37Rv infected mice (CFU in lung and spleen)", "details": "10-50 mg/kg on alternate days for four weeks"}, "in vitro": {"assay": "in vitro", "assay_type": "in vitro ADME", "details": "mouse, plasma", "description": "DRILS-1398 (5μM) was added to both sides of the membrane in an equilibrium dialysis system. Species-specific plasma (50% or 100%) was added to one side, and the system was allowed to reach equilibrium at 37 °C. LC-MS/MS measurements of compound concentration were performed on both sides of the membrane and the fraction of unbound compound was presented.[52]"}, "[7]": {"details": "up to 500 mg/kg b.w./day, 7 days"}}, "note": "Values joined by “and” are separate entries in the source; they are usually repeats but may differ in a detail not shown here. Equal values may be shown once. “Also recorded” adds a separate entry of the source. Read-outs that look alike come from different tables or passages of the source.", "data": [{"smiles": "CCCc1nn(C)c2c(-c3c[nH]c4ccc(Cl)cc34)nc(-c3ccc(Cl)cc3)nc12", "note": "[DRILS-1398]", "values": [{"measurement": "Growth of M.tb H37Rv with compound, amino acids added after 24 h", "setting": "M.tb H37Rv cells; 4 μg/mL compound, until 96 h", "value": "showed inhibitory effects up to 24 h"}, {"measurement": "Growth of M.tb H37Rv with compound and tyrosine or phenylalanine added at time 0", "setting": "M.tb H37Rv cells; ~10 μM compound, 24-96 h", "value": "amino acid supplementation rescued the cells from the inhibitory effects"}, {"measurement": "IC50", "setting": "CYP 1A2", "value": "> 30", "unit": "µM"}, {"measurement": "Clinical signs of toxicity, mortality/morbidity", "setting": "[1]; oral gavage up to 500 mg/kg b.w./day once daily for 7 days, both genders", "value": "no adverse clinical signs of toxicity and mortality/morbidity"}, {"measurement": "Effects on body weight, weight gain, feed consumption, hematological and clinical chemistry parameters", "setting": "[1]; [7]", "value": "No treatment-related adverse effects"}, {"measurement": "Histopathological evaluation of examined tissues", "setting": "[1]; [7]", "value": "no treatment-related adverse effects"}, {"measurement": "Mutagenic potential", "setting": "[2]", "value": "did not show any mutagenic potential; also recorded: non-mutagenic"}, {"measurement": "solubility", "setting": "physchem", "value": "≥ 50", "unit": "mg/mL"}, {"measurement": "MIC", "setting": "MDR-M.tb ATCC 35825", "value": "4 µg/mL and ~10 µM"}, {"measurement": "IC50", "setting": "CYP 2D6", "value": "> 30", "unit": "µM"}, {"measurement": "cfu reduction vs day-3 control", "setting": "[3]; Fig 4B, day 3, C1: DRILS-1398 15 μM, rifampicin 13.16 μM", "value": 0.59, "unit": "log10 cfu/mL"}, {"measurement": "cfu reduction vs day-7 control", "setting": "[3]; Fig 4B, day 7, C1: DRILS-1398 15 μM, rifampicin 13.16 μM", "value": 1.00, "unit": "log10 cfu/mL"}, {"measurement": "cfu reduction vs day 3 control, combination study", "setting": "[3]; Fig 4D, day 3, DRILS-1398 15 μM, rifampicin 19.45 μM, alone or combined", "value": 0.42, "unit": "log10 cfu/mL"}, {"measurement": "cfu reduction vs day 7 control, combination study", "setting": "[3]; Fig 4D, day 7, DRILS-1398 15 μM, rifampicin 19.45 μM, alone or combined", "value": 0.98, "unit": "log10 cfu/mL"}, {"measurement": "AUC(0-inf)", "setting": "[4]; male, BALB/c, po, 50 mg/kg", "value": 21400, "unit": "ng·h/mL"}, {"measurement": "AUCextrap", "setting": "[4]; male, BALB/c, po, 50 mg/kg", "value": 10.30, "unit": "%"}, {"measurement": "Cmax", "setting": "[4]; male, BALB/c, po, 50 mg/kg", "value": 1580, "unit": "ng/mL"}, {"measurement": "MRT last", "setting": "[4]; male, BALB/c, po, 50 mg/kg", "value": 7.52, "unit": "h"}, {"measurement": "Tmax", "setting": "[4]; male, BALB/c, po, 50 mg/kg", "value": 4, "unit": "h"}, {"measurement": "AUC(0-t)", "setting": "[4]; male, BALB/c, oral 50 mg/kg", "value": 19200, "unit": "ng·h/mL"}, {"measurement": "half-life", "setting": "[4]; male, BALB/c, oral 50 mg/kg", "value": 6.95, "unit": "h"}, {"measurement": "Adverse clinical signs during PK treatment", "setting": "[4]; po, 50 mg/kg", "value": "did not show any adverse clinical signs"}, {"measurement": "Approximate free drug concentration in blood plasma", "setting": "[5]; in vivo", "value": "~0.4", "unit": "µM"}, {"measurement": "clearance", "setting": "[5]; in vivo", "value": 35, "unit": "mL/min/kg"}, {"measurement": "half-life", "setting": "[5]; plasma, IV 10 mg/kg", "value": "~8.25", "unit": "h"}, {"measurement": "Mouse microsomal stability", "setting": "[6]; 2 min", "value": 56.45, "unit": "%"}, {"measurement": "Mouse microsomal stability", "setting": "[6]; 5 min", "value": 53.42, "unit": "%"}, {"measurement": "Mouse microsomal stability", "setting": "[6]; 0.25 h", "value": 42.18, "unit": "%"}, {"measurement": "Mouse microsomal stability", "setting": "[6]; 0.75 h", "value": 24.61, "unit": "%"}, {"measurement": "Mouse microsomal stability", "setting": "[6]; 2 h", "value": 26.57, "unit": "%"}, {"measurement": "Microsomal stability, verdict", "setting": "[6]; mouse", "value": "moderately stable"}, {"measurement": "Clearance of M.tb H37Rv infection in lungs and spleen (CFU)", "setting": "M.tb H37Rv", "value": "successful in clearing M.tb infection from the lungs and spleen; also recorded: effectively cleared"}, {"measurement": "fraction unbound at 5 µM", "setting": "in vitro", "value": "~0.0184"}]}]}
